Among the data in patent publication US9662327B2 (AGIOS PHARMACEUTICALS, INC, priority 2011, dated 2017) are IC50 values, retold here.

Where only a bound is given, the exact number is not on record here.

In the first experiment the target is IDH1 R132H (Homo sapiens (Human), UniProt O75874, R132H). The experiment in a line: Assays for IDH1 R132H Inhibitors (NADPH/aKG, resazurin detection). Particulars: IDH1 R132H enzyme, Table 2; read-out: IDHR132H Activity. The class given is biochemical. The gist of the method: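 Substrate mix held 8 uM NADPH plus 2 mM aKG; buffer was 20 mM Tris pH 7.5 with 150 mM NaCl, 10 mM MgCl2, 0.03% BSA. After 50 min room-temperature reaction, NADPH remaining was detected with 30 μM resazurin mix over 5 min.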
IDH1 R132H, sequence (O75874 whole entry R132H): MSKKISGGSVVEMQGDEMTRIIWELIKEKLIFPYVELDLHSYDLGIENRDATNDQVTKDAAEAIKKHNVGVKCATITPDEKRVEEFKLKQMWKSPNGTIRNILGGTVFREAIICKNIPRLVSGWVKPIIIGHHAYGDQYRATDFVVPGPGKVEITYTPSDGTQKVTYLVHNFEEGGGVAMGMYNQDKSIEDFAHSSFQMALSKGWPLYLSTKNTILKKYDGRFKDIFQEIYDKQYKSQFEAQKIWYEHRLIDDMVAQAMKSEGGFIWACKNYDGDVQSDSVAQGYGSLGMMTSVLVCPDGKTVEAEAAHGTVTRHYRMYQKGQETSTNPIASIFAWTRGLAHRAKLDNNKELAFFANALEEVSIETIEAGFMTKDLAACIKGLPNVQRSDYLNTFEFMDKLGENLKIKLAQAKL
Regarding `CCc1nc(N2CCN(C(=O)CCOC)[C@H](C(C)C)C2)c(C#N)c2c1COC(C)(C)C2` [Compound 413, (R)-8-ethyl-6-(3-isopropyl-4-(3-methoxypropanoyl)piperazin-1-yl)-3,3-dimethyl-3,4-dihydro-1H-pyrano[3,4-c]pyridine-5-carbonitrile], the IC50 was less than 0.5 µM.

Consider `CC1(C)Cc2c(C#N)c(N3CCN(C(=O)c4ccoc4)[C@H](c4ccccc4)C3)nc(C3CC3)c2CO1` [Compound 274, (R)-8-cyclopropyl-6-(4-(furan-3-carbonyl)-3-phenylpiperazin-1-yl)-3,3-dimethyl-3,4-dihydro-1H-pyrano[3,4-c]pyridine-5-carbonitrile], for which the IC50 was in the range of 1 to 10 µM.

For `CC(C)[C@@H]1CN(c2nc(C3CC3)c3c(c2C#N)CC(C)(C)OC3)CCN1C(=O)C1CC1` [Compound 376, (R)-6-(4-(cyclopropanecarbonyl)-3-isopropylpiperazin-1-yl)-8-cyclopropyl-3,3-dimethyl-3,4-dihydro-1H-pyrano[3,4-c]pyridine-5-carbonitrile], the IC50 is less than 0.5 µM.

On to `COCCNC(=O)N1CCN(c2nc(C3CC3)c3c(c2C#N)CC(C)(C)OC3)C[C@H]1C(C)C` [Compound 353], for which the IC50 fell in the range of 0.5 to 1 µM.

As for `CCNC(=O)N1CCN(c2nc(C3CCCCC3)c3c(c2C#N)CCOC3)C[C@H]1C` [Compound 335, (R)-4-(5-cyano-8-cyclohexyl-3,4-dihydro-1H-pyrano[3,4-c]pyridin-6-yl)-N-ethyl-2-methylpiperazine-1-carboxamide], the IC50 fell in the range of 1 to 10 µM.

For the compound `C=CCNC(=O)N1CCN(c2nc(C3CC3)c3c(c2C#N)CC(C)(C)OC3)C[C@H]1C(C)C` [Compound 304, (R)—N-allyl-4-(5-cyano-8-cyclopropyl-3,3-dimethyl-3,4-dihydro-1H-pyrano[3,4-c]pyridin-6-yl)-2-isopropylpiperazine-1-carboxamide], the IC50 is less than 0.5 µM.

In the case of `CC1(C)Cc2c(C#N)c(N3CCN(C(=O)c4ccco4)CC3)nc(C3CCCCC3)c2CO1` [Compound 117, 8-cyclohexyl-6-(4-(furan-2-carbonyl)piperazin-1-yl)-3,3-dimethyl-3,4-dihydro-1H-pyrano[3,4-c]pyridine-5-carbonitrile], the IC50 lay in the range of 1 to 10 µM.

Turning to `CC(C)c1nc(N2CCN(C(=O)Cc3cccs3)[C@H](C)C2)c(C#N)c2c1COC(C)(C)C2` [Compound 158, (R)-8-isopropyl-3,3-dimethyl-6-(3-methyl-4-(2-(thiophen-2-yl)acetyl)piperazin-1-yl)-3,4-dihydro-1H-pyrano[3,4-c]pyridine-5-carbonitrile], the IC50 is 0.5 to 1 µM.

In the case of `CC(C)[C@@H]1CN(c2nc(C3CC3)c3c(c2C#N)CC(C)(C)OC3)CCN1C(=O)OCCO` [Compound 368, (R)-2-hydroxyethyl 4-(5-cyano-8-cyclopropyl-3,3-dimethyl-3,4-dihydro-1H-pyrano[3,4-c]pyridin-6-yl)-2-isopropylpiperazine-1-carboxylate], the IC50 was in the range of 0.5 to 1 µM.

`CC(C)c1nc(N2CCN(C(=O)Cc3ccccc3F)[C@H](C(C)C)C2)c(C#N)c2c1COC(C)(C)C2` [Compound 215, (R)-6-(4-(2-(2-fluorophenyl)acetyl)-3-isopropylpiperazin-1-yl)-8-isopropyl-3,3-dimethyl-3,4-dihydro-1H-pyrano[3,4-c]pyridine-5-carbonitrile]: the IC50 lay within 1 to 10 µM.

Consider `N#Cc1c(N2CCN(C(=O)c3cccc4[nH]ccc34)CC2)nc(C2CCCCC2)c2c1CCOC2` [Compound 119, 6-(4-(1H-indole-4-carbonyl)piperazin-1-yl)-8-cyclohexyl-3,4-dihydro-1H-pyrano[3,4-c]pyridine-5-carbonitrile], for which the IC50 lay within 1 to 10 µM.

On to `C[C@@H]1CN(c2nc(C3CCCCC3)c3c(c2C#N)CCOC3)CCN1C(=O)OCc1ccccc1` [Compound 343, (R)-benzyl 4-(5-cyano-8-cyclohexyl-3,4-dihydro-1H-pyrano[3,4-c]pyridin-6-yl)-2-methylpiperazine-1-carboxylate], for which the IC50 was in the range of 1 to 10 µM.

Consider `C[C@@H]1CN(c2nc(C3CCCCC3)c3c(c2C#N)CCOC3)CCN1C(=O)Cc1cccs1` [Compound 185, (R)-8-cyclohexyl-6-(3-methyl-4-(2-(thiophen-2-yl)acetyl)piperazin-1-yl)-3,4-dihydro-1H-pyrano[3,4-c]pyridine-5-carbonitrile], for which the IC50 is 1 to 10 µM.

As to `CCCC(=O)N1CCN(c2nc(C3CCCCC3)c3c(c2C#N)CCOC3)C[C@H]1C` [Compound 379, (R)-6-(4-butyryl-3-methylpiperazin-1-yl)-8-cyclohexyl-3,4-dihydro-1H-pyrano[3,4-c]pyridine-5-carbonitrile], the IC50 lay within 1 to 10 µM.

With `CC(C)c1nc(N2CCN(C(=O)c3cccs3)[C@H](C)C2)c(C#N)c2c1COC(C)(C)C2` [Compound 246, (R)-8-isopropyl-3,3-dimethyl-6-(3-methyl-4-(thiophene-2-carbonyl)piperazin-1-yl)-3,4-dihydro-1H-pyrano[3,4-c]pyridine-5-carbonitrile], the IC50 was in the range of 1 to 10 µM.

Turning to `COc1ccccc1CC(=O)N1CCN(c2nc(C3CC3)c3c(c2C#N)CC(C)(C)OC3)C[C@H]1C(C)C` [Compound 208], the IC50 lay within 0.5 to 1 µM.

For `CC[C@@H]1CN(c2nc(C(C)C)c3c(c2C#N)CC(C)(C)OC3)CCN1C(=O)Cc1cccs1` [Compound 206, (R)-6-(3-ethyl-4-(2-(thiophen-2-yl)acetyl)piperazin-1-yl)-8-isopropyl-3,3-dimethyl-3,4-dihydro-1H-pyrano[3,4-c]pyridine-5-carbonitrile], the IC50 is less than 0.5 µM.

Turning to `CC(C)c1nc(N2CCN(C(=O)c3ccoc3)[C@H](c3ccccc3)C2)c(C#N)c2c1COC(C)(C)C2` [Compound 256, (R)-6-(4-(furan-3-carbonyl)-3-phenylpiperazin-1-yl)-8-isopropyl-3,3-dimethyl-3,4-dihydro-1H-pyrano[3,4-c]pyridine-5-carbonitrile], the IC50 was in the range of 1 to 10 µM.

Take `N#Cc1c(N2CCN(C(=O)c3ccc4cc[nH]c4c3)CC2)nc(C2CCCCC2)c2c1CCOC2` [Compound 123, 6-(4-(1H-indole-6-carbonyl)piperazin-1-yl)-8-cyclohexyl-3,4-dihydro-1H-pyrano[3,4-c]pyridine-5-carbonitrile]: the IC50 fell in the range of 1 to 10 µM.

Regarding `CC(C)c1nc(N2CCN(S(=O)(=O)c3cccs3)CC2)c(C#N)c2c1COCC2` [Compound 101], the IC50 lay within 1 to 10 µM.

As for `Cc1ccc(NC(=O)N2CCN(c3nc(C4CC4)c4c(c3C#N)CC(C)(C)OC4)C[C@H]2C(C)C)cc1` [Compound 301, (R)-4-(5-cyano-8-cyclopropyl-3,3-dimethyl-3,4-dihydro-1H-pyrano[3,4-c]pyridin-6-yl)-2-isopropyl-N-p-tolylpiperazine-1-carboxamide], the IC50 fell in the range of 1 to 10 µM.

For the compound `CCC(=O)N1CCN(c2nc(C3CC3)c3c(c2C#N)CC(C)(C)OC3)C[C@H]1C(C)C` [Compound 354, (R)-8-cyclopropyl-6-(3-isopropyl-4-propionylpiperazin-1-yl)-3,3-dimethyl-3,4-dihydro-1H-pyrano[3,4-c]pyridine-5-carbonitrile], the IC50 is less than 0.5 µM.

As for `CCOC(=O)[C@@H]1CN(c2nc(C(C)C)c3c(c2C#N)CC(C)(C)OC3)CCN1C(=O)c1ccoc1` [Compound 411], the IC50 lay in the range of 0.5 to 1 µM.

Consider `CC(C)c1nc(N2CC(C)N(C(=O)c3ccco3)CC2C)c(C#N)c2c1COCC2` (stereo not shown) [Compound 114, 6-(4-(furan-2-carbonyl)-2,5-dimethylpiperazin-1-yl)-8-isopropyl-3,4-dihydro-1H-pyrano[3,4-c]pyridine-5-carbonitrile], for which the IC50 fell in the range of 1 to 10 µM.

For the compound `COCCC(=O)N1CCN(c2nc(C3CCCCC3)c3c(c2C#N)CCOC3)C[C@H]1C` [Compound 240, (R)-8-cyclohexyl-6-(4-(3-methoxypropanoyl)-3-methylpiperazin-1-yl)-3,4-dihydro-1H-pyrano[3,4-c]pyridine-5-carbonitrile], the IC50 lay in the range of 1 to 10 µM.

With `Cc1oncc1C(=O)N1CCN(c2nc(C3CCCCC3)c3c(c2C#N)CCOC3)C[C@H]1C` [Compound 187, (R)-8-cyclohexyl-6-(3-methyl-4-(5-methylisoxazole-4-carbonyl)piperazin-1-yl)-3,4-dihydro-1H-pyrano[3,4-c]pyridine-5-carbonitrile], the IC50 lay in the range of 0.5 to 1 µM.

Take `Cc1occc1C(=O)N1CCN(c2nc(C(C)C)c3c(c2C#N)CC(C)(C)OC3)C[C@H]1C(C)C` [Compound 176, (R)-8-isopropyl-6-(3-isopropyl-4-(2-methylfuran-3-carbonyl)piperazin-1-yl)-3,3-dimethyl-3,4-dihydro-1H-pyrano[3,4-c]pyridine-5-carbonitrile]: the IC50 was less than 0.5 µM.

`CCOC(=O)[C@H]1CN(c2nc(C(C)C)c3c(c2C#N)CC(C)(C)OC3)CCN1C(=O)c1ccoc1` [Compound 410]: the IC50 was in the range of 0.5 to 1 µM.

Consider `CC(C)c1nc(N2CCN(C(=O)c3ccco3)[C@@H](c3ccccc3)C2)c(C#N)c2c1COC(C)(C)C2` [Compound 223, (S)-6-(4-(furan-2-carbonyl)-3-phenylpiperazin-1-yl)-8-isopropyl-3,3-dimethyl-3,4-dihydro-1H-pyrano[3,4-c]pyridine-5-carbonitrile], for which the IC50 is 0.5 to 1 µM.

The same experiment, now with this note: IDH1 R132H enzyme, Table 3; read-out: R132H IC50.
As for `CC1CN(c2nc(C3CC3)c3c(c2C#N)CC(C)(C)OC3)CC(F)CN1C(=O)C1CC1` (stereo not shown) [Compound 474, 6-(4-(cyclopropanecarbonyl)-6-fluoro-3-methyl-1,4-diazepan-1-yl)-8-cyclopropyl-3,3-dimethyl-3,4-dihydro-1H-pyrano[3,4-c]pyridine-5-carbonitrile], the IC50 fell in the range of 0.5 to 1 µM.

As for `C/C=C/C(=O)N1CCc2c(C#N)c(N3CCN(C(=O)C4CC4)[C@H](C4CC4)C3)nc(C3CC3)c2C1` [Compound 499, (R,E)-7-but-2-enoyl-3-(4-(cyclopropanecarbonyl)-3-cyclopropylpiperazin-1-yl)-1-cyclopropyl-5,6,7,8-tetrahydro-2,7-naphthyridine-4-carbonitrile], the IC50 was in the range of 0.5 to 1 µM.
